Results taken from patent US20220008425A1, “Pharmaceutical Composition for Treating B-Cell Lymphoma” (FUNDAN UNIVERSITY SHANGHAI CANER CENTER, priority 2018, published 2022).
Several values for one entry are separate records, joined by “and”; a condition that tells them apart may be missing. Equal entries are not always repeated. Entries after “also recorded” stand apart in the source; their conditions may differ.

Assays:
LY8-RCHO cells [1] = assay: Aldefluor analysis (ALDH1+ cells); format: cell-based, human
Experimental: ALDH1 is a selectable marker for a variety of normal and cancer stem cells, including hematopoietic stem cells. Therefore, we assessed the number of cancer stem cells in hematopoietic malignancies by detecting ALDH1 positive cells. As previously described, we used an ALDEFLUOR™ kit (StemCell Technologies, Vancouver, BC, CA) to detect populations with high ALDH1 activity. Briefly, 1×10^6 cells were suspended in 1 mL of assay buffer containing 1 μM of BAAA, a substrate of […]. Suspended cells were then equally divided into two samples, one as a negative control and the other as a test sample. To form the negative control, […] of DEAB, a specific ALDH inhibitor, was added to one equally-divided sample. Cells were then incubated at 37° C. for 30 minutes prior to flow cytometry analysis.

[2] = system: AKT phosphorylation, SOX2, CDK6 and CSC-associated molecules in LY8-RCHO cells; assay: Immunoblot analysis; format: cell-based, human
LY8-RCHO cells [3] = conditions: 48 hours; for cytotoxicity (induction of cell death), inhibitor used alone: inhibitor alone at increasing concentrations; for reversal of resistance to CHO (cytotoxicity of CHO), inhibitor co-treated with CHO: inhibitor at increasing concentrations with CHO
Experimental: (§1) Further, we constructed LY8 and NU-DUL-1 cells resistant to chemotherapeutic drugs. Briefly, LY8-ORI and NU-DUL-1-ORI cells were treated with doxorubicin (Selleck Chemicals, Houston, Tex.) and vincristine (Selleck Chemicals, Houston, Tex.) at a clinical ratio of 50:1.4 by increasing the concentration. […] These cells were then treated with 2 μg/mL of 4-hydroperoxycyclophosphamide (4-HC) (Santa Cruz Biotechnology, Inc., Santa Cruz, Calif.) every 21 days for 3 cycles. The obtained CHO-resistant cells are referred to as LY8-CHO and NU-DUL-1-CHO, respectively. CHO-resistant cells were treated with doxorubicin, vincristine, and 4-HC every 22 days to maintain drug tolerance to CHO. […] To maintain RCHO resistance, LY8-RCHO cells and NU-DUL-1-RCHO cells were treated with 32 μg/mL of rituximab containing 20% (v/v) of NHS every 22 days, followed by treatment with doxorubicin, vincristine, and 4-HC. After 48 hours of treatment with doxorubicin, vincristine and 4-HC, drug resistance to CHO and RCHO was determined by a series of CCK-8 assays.
(§2) Cells were seeded in a 96-well plate at a density of 1×10^4/100 μL/well. Cells were pretreated with IPI-145, abemaciclib, AZD4547, PF-573228, R788, or saracatinib at increasing concentrations with or without CHO for 48 hours prior to performing CytoTox-Glo™ cytotoxicity assay. We performed cytotoxicity assay by using a CytoTox-Glo™ cytotoxicity assay kit (Promega Inc., Madison, Wis.) according to their instructions. Briefly, 50 μL of CytoTox-Glo™ cytotoxicity assay reagent was added to all wells, mixed by orbital shaking, and then incubated for 15 minutes at room temperature. Luminescence of experimental dead cells was detected with a Synergy HT microplate reader (BioTek, Biotek Winooski, Minn.), wherein 50 μL of lysate was added to all wells, mixed and incubated for 15 minutes at room temperature prior to detection of total luminescence. Cytotoxicity was calculated according to the following formula: Cytotoxicity (%)=Experimental dead cell luminescence/Total luminescence×100%.

LY8-RCHO cells [4] = assay: CDC assay (rituximab-mediated complement-dependent cytotoxicity); format: cell-based, human; conditions: pre-treated with inhibitor 24 hours, then rituximab and 20% NHS 2 hours
Experimental: We constructed LY8 cells and NU-DUL-1 cells that are resistant to rituximab-mediated complement-dependent cytotoxicity (CDC). Briefly, original LY8 (LY8-ORI) cells and original NU-DUL-1 (NU-DUL-1-ORI) cells were treated with rituximab containing 20% (v/v) of NHS (Roche, Basel, Switzerland) with a concentration of gradually increasing from 4 μg/mL to 32 μg/mL to construct drug-resistant cells. […] Cytolysis induced by CDC was evaluated by detection of positive cells stained with propidium iodide (PI) through fluorescence activated cell sorting (FACS).

LY8-RCHO cells [5] = assay: EdU cell proliferation assay; format: cell-based, human; conditions: 1 μM
Experimental: RCHO-resistant DLBCL cells were pretreated with duvelisib, abemaciclib, or AZD4547 at a concentration of 1 μM for 48 or 120 hours prior to EdU assay. For 120 hours of the study, the medium was replaced with a fresh medium containing 1 μM of inhibitor at 48 hours. EdU cell proliferation assay was performed by using a cell-light EdU Apollo643 in vitro flow cytometry kit (RiboBio Inc., Guangzhou, China) according to its instructions. Next, we assayed EdU staining positive cells on a Cytomics FC500 MPL flow cytometer (Beckman Coulter, Brea, Calif.).

LY8-RCHO-Luc cells = assay: Transplantation model, bioluminescence tumor growth and survival; format: in vivo; conditions: SCID mice bearing LY8-RCHO-Luc cells
Excerpt: Construction of a transplantation model: we transduced LY8-RCHO cells and NU-DUL-1-RCHO cells with lentiviruses overexpressing the firefly luciferase gene to generate stable cells expressing firefly luciferase, referred to as LY8-RCHO-Luc cells and NU-DUL-1-RCHO-Luc cells, respectively. 8-week-old female SCID mice were purchased from SLAC (Shanghai laboratory animal center). The LY8-RCHO-Luc cells and NU-DUL-1-RCHO-Luc cells were resuspended in PBS prior to intraperitoneal injection of 1.5×10^7 cells per mouse. After intraperitoneal injection of the LY8-RCHO-Luc cells, mice were randomized into 6 groups (7 mice in every group) and given saline, R-CHOP, duvelisib, abemaciclib, R-CHOP+duvelisib, and R-CHOP+abemaciclib, respectively. Mice inoculated with the NU-DUL-1-RCHO-Luc cells were randomly divided into 6 groups (7 mice in every group), and were given saline, R-CHOP, duvelisib, AZD4547, R-CHOP+duvelisib, and R-CHOP+AZD4547, respectively. The drug dosing method based on one course of clinical use is shown in Table 1; the R-CHOP regimen was clinically used to treat DLBCL, while duvelisib, abemaciclib, and AZD4547 were tested in clinical trials (associated NCT numbers are NCT02576275, NCT01739309, and […], respectively). Tumor growth was monitored by bioluminescence at day 50 and day 90 after inoculation. For in vivo luminescence imaging, D-luciferin (Promega, Madison, Wis.) was intraperitoneally injected into mice (150 mg/kg). After 10 minutes, the mice were anesthetized by intraperitoneal injection of pentobarbital (50 mg/kg) and then their bioluminescence intensity was examined by using an In Vivo MS FX PRO system (Bruker Corporation, Billerica, Mass.). Luminescence images were captured with an exposure time of 30 seconds and the signal intensity of the tumor was measured by using Bruker MI software. The survival time of each mouse was recorded. Surviving mice were euthanized and dissected 120 days after inoculation and no intraperitoneal tumors were found. Tumor tissue was collected from moribund mice and fixed with 4% formalin. All animal experiments were performed in strict accordance with the experiment protocol approved by the animal ethics committee of Shanghai school of medicine of Fudan university.

[6] = system: CD20 and mCRPs (CD46, CD55, CD59) in RCHO-resistant LY8 cells; assay: FACS analysis of membrane expression of CD46, CD55, CD59 and CD20; format: cell-based, human
Experimental: (§3) After being washed with PBS, cells were incubated with fluorescein-conjugated antibody for 30 minutes, followed by washing and resuspension of cells in PBS. Flow cytometry analysis was performed on a cytomics FC500 MPL instrument (Beckman Coulter, Inc., Brea, Calif.) and FlowJo software (Ashland, Inc., OR) was used for analysis. Cells were then sorted according to their relative fluorescence intensity by using a MoFlo XDP sorter (Beckman Coulter Inc., Brea, Calif.).

[7] = system: CD20 and mCRPs (CD46, CD55, CD59) in RCHO-resistant NU-DUL-1 cells; assay: as above; format: cell-based, human
Experimental: as §3

NU-DUL-1-RCHO cells = conditions: 48 hours; for cytotoxicity (induction of cell death), inhibitor used alone: inhibitor alone at increasing concentrations; for reversal of resistance to CHO (cytotoxicity of CHO), inhibitor co-treated with CHO: inhibitor at increasing concentrations with CHO
Experimental: as §1, §2

CCN1CCN(Cc2ccc(Nc3ncc(F)c(-c4cc(F)c5nc(C)n(C(C)C)c5c4)n3)nc2)CC1 [abemaciclib]
proportion of ALDH1+ cells (CSCs) (LY8-RCHO cells [1]): had no effect on ALDH1+ subpopulations in LY8-RCHO cells | levels of CSC-associated molecules (OCT4, NANOG, KLF4, c-MYC, CD34, CD133) [2]: had no effect on its levels but resulted in a reduction in C-MYC | cytotoxicity (induction of cell death), inhibitor used alone (LY8-RCHO cells [3]): negligible effect on induction of cell death; also recorded: only negligible cytotoxicity on drug-resistant cells | reversal of resistance to CHO (cytotoxicity of CHO), inhibitor co-treated with CHO (LY8-RCHO cells [3]): restored sensitivity of RCHO-resistant cells to CHO; also recorded: significantly enhanced cytotoxicity of CHO | effect on resistance to R-mediated CDC (LY8-RCHO cells [4]): failed to reverse resistance to R-mediated CDC | cell proliferation (EdU incorporation) (LY8-RCHO cells [5]; 48 hours): prevented growth of LY8-RCHO cells at both 48 hours and 120 hours | cell proliferation (EdU incorporation) (LY8-RCHO cells [5]; 120 hours): prevented growth of LY8-RCHO cells at both 48 hours and 120 hours | day of death of the two mice that died (LY8-RCHO-Luc cells; inhibitor combined with R-CHOP, 7 mice per group): 62 days and 78 days | tumor growth (total photon flux) (LY8-RCHO-Luc cells; inhibitor combined with R-CHOP, dosing per Table 1): significantly inhibited tumor growth | survival (LY8-RCHO-Luc cells; inhibitor combined with R-CHOP, experiment ended at day 120): prolonged the survival rate compared with R-CHOP or an inhibitor alone | survival (LY8-RCHO-Luc cells; regimen or inhibitor used alone, vs saline, dosing per Table 1): neither duvelisib nor abemaciclib alone inhibited tumor growth or prolonged the survival rate | tumor growth (total photon flux) (LY8-RCHO-Luc cells; regimen or inhibitor used alone, vs saline, dosing per Table 1, day 50 and 90): neither duvelisib nor abemaciclib alone inhibited tumor growth or prolonged the survival rate

NC1(c2ccc(-c3nc4ccn5c(=O)[nH]nc5c4cc3-c3ccccc3)cc2)CCC1 [MK-2206]
membrane expression of CD20 [6]: significantly reduced | membrane expression of the other three mCRPs (CD46, CD55, CD59) [6]: the other three mCRPs did not | membrane expression of CD20 [7]: significantly reduced | membrane expression of the other three mCRPs (CD46, CD55, CD59) [7]: the other three mCRPs did not

CN1CCN(CCOc2cc(OC3CCOCC3)c3c(Nc4c(Cl)ccc5c4OCO5)ncnc3c2)CC1 [saracatinib]
cytotoxicity (induction of cell death), inhibitor used alone (LY8-RCHO cells [3]): negligible effect on direct induction of cell death | reversal of resistance to CHO (cytotoxicity of CHO), inhibitor co-treated with CHO (LY8-RCHO cells [3]): significantly reversed resistance of RCHO-resistant cells to CHO | cytotoxicity (induction of cell death), inhibitor used alone (NU-DUL-1-RCHO cells): negligible effect on direct induction of cell death | reversal of resistance to CHO (cytotoxicity of CHO), inhibitor co-treated with CHO (NU-DUL-1-RCHO cells): significantly reversed resistance of RCHO-resistant cells to CHO

CS(=O)(=O)c1cccc(CNc2nc(Nc3ccc4c(c3)CCC(=O)N4)ncc2C(F)(F)F)c1 [PF-573228]
cytotoxicity (induction of cell death), inhibitor used alone (LY8-RCHO cells [3]): negligible effect on direct induction of cell death | reversal of resistance to CHO (cytotoxicity of CHO), inhibitor co-treated with CHO (LY8-RCHO cells [3]): significantly reversed resistance of RCHO-resistant cells to CHO

COc1cc(Nc2ncc(F)c(Nc3ccc4c(c3)N(COP(=O)(O)O)C(=O)C(C)(C)O4)n2)cc(OC)c1OC [R788]
cytotoxicity (induction of cell death), inhibitor used alone (LY8-RCHO cells [3]): negligible effect on direct induction of cell death | reversal of resistance to CHO (cytotoxicity of CHO), inhibitor co-treated with CHO (LY8-RCHO cells [3]): significantly reversed the resistance of RCHO-resistant cells to CHO | cytotoxicity (induction of cell death), inhibitor used alone (NU-DUL-1-RCHO cells): negligible effect on direct induction of cell death | reversal of resistance to CHO (cytotoxicity of CHO), inhibitor co-treated with CHO (NU-DUL-1-RCHO cells): significantly reversed the resistance of RCHO-resistant cells to CHO
